The results in this text go back to patent US8513251B2, “Pyridazinone compounds” (Takeda Pharmaceutical Company Limited, priority 2009, dated 2013).

SMILES strings stand for the structures.

Usually melting point stands for the temperature, or range, at which the solid turns liquid. The molecule `O=c1c(Br)cn(-c2cccc(C(F)(F)F)c2)nc1-c1ccnn1-c1ccccc1` [Example 67, 5-Bromo-3-(1-phenyl-1H-pyrazol-5-yl)-1-[3-(trifluoromethyl)phenyl]pyridazin-4(1H)-one] yielded a melting point of 145 to 146 °C.
Under `COc1cn(-c2ccc(OCc3ccccc3)cc2F)nc(-c2ccnn2-c2ccccc2)c1=O` [Example 68, 1-[4-(Benzyloxy)-2-fluorophenyl]-5-methoxy-3-(1-phenyl-1H-pyrazol-5-yl)pyridazin-4(1H)-one] stands 181 to 183 °C.
With `O=c1cc(O)n(-c2cccc(C(F)(F)F)c2)nc1-c1ccnn1-c1ccccc1` [Example 69, 6-Hydroxy-3-(1-phenyl-1H-pyrazol-5-yl)-1-[3-(trifluoromethyl)phenyl]pyridazin-4(1H)-one], the melting point fell in the range of 241 to 243 °C.
`O=c1ccn(-c2cccc(C(F)(F)F)c2)nc1-c1cc(C(F)(F)F)nn1-c1ccccc1` [Example 70, 3-[1-Phenyl-3-(trifluoromethyl)-1H-pyrazol-5-yl]-1-[3-(trifluoromethyl)phenyl]pyridazin-4(1H)-one]: the melting point was 190 to 191 °C.
Under `Cc1cnn(-c2ccccc2)c1-c1nn(-c2cccc(C(F)(F)F)c2)ccc1=O` [Example 71, 3-(4-Methyl-1-phenyl-1H-pyrazol-5-yl)-1-[3-(trifluoromethyl)phenyl]pyridazin-4(1H)-one] stands 208 to 211 °C; under `O=c1ccn(-c2cccc(C(F)(F)F)c2)nc1-c1cn(C(c2ccccc2)(c2ccccc2)c2ccccc2)nc1-c1ccccc1` [Example 73, 3-(3-Phenyl-1-trityl-1H-pyrazol-4-yl)-1-[3-(trifluoromethyl)phenyl]pyridazin-4(1H)-one], 216 to 218 °C.
With `O=c1ccn(-c2cccc(C(F)(F)F)c2)nc1-c1c[nH]nc1-c1ccccc1` [Example 74, 3-(3-Phenyl-1H-pyrazol-4-yl)-1-[3-(trifluoromethyl)phenyl]pyridazin-4(1H)-one], the melting point was 206 to 208 °C.
Molecule `Cn1ncc(-c2nn(-c3cccc(C(F)(F)F)c3)ccc2=O)c1-c1ccccc1` [Example 75, 3-(1-Methyl-5-phenyl-1H-pyrazol-4-yl)-1-[3-(trifluoromethyl)phenyl]pyridazin-4(1H)-one] came in with a melting point of 193 to 195 °C.
For the molecule `Cn1cc(-c2nn(-c3cccc(C(F)(F)F)c3)ccc2=O)c(-c2ccccc2)n1` [Example 76, 3-(1-Methyl-3-phenyl-1H-pyrazol-4-yl)-1-[3-(trifluoromethyl)phenyl]pyridazin-4(1H)-one], the melting point lay within 181 to 183 °C.
As for `CC(C)n1ncc(-c2nn(-c3cccc(C(F)(F)F)c3)ccc2=O)c1-c1ccccc1` [Example 78, 3-[1-(1-Methylethyl)-5-phenyl-1H-pyrazol-4-yl]-1-[3-(trifluoromethyl)phenyl]pyridazin-4(1H)-one], the melting point was in the range of 183 to 186 °C.
Molecule `O=c1ccn(-c2cccc(C(F)(F)F)c2)nc1-c1conc1-c1ccccc1` [Example 79, 3-(3-Phenylisoxazol-4-yl)-1-[3-(trifluoromethyl)phenyl]pyridazin-4(1H)-one] displayed a melting point of 217 to 219 °C.
Turning to `O=c1ccn(-c2cccc(C(F)(F)F)c2)nc1-n1ccnc1-c1ccccc1` [Example 81, 3-(2-Phenyl-1H-imidazol-1-yl)-1-[3-(trifluoromethyl)phenyl]pyridazin-4(1H)-one], the melting point lay within 204 to 205 °C.
Under `COc1cn(-c2cccc(C(F)(F)F)c2)nc(-n2ccnc2-c2ccccc2)c1=O` [Example 82, 5-Methoxy-3-(2-phenyl-1H-imidazol-1-yl)-1-[3-(trifluoromethyl)phenyl]pyridazin-4(1H)-one] stands 167 to 170 °C.
For `Cn1cnc(-c2ccccc2)c1-c1nn(-c2cccc(C(F)(F)F)c2)ccc1=O` [Example 84, 3-(1-Methyl-4-phenyl-1H-imidazol-5-yl)-1-[3-(trifluoromethyl)phenyl]pyridazin-4(1H)-one] the value was 214 to 216 °C; for `O=c1ccn(-c2cccc(C(F)(F)F)c2)nc1-c1ccoc1-c1ccccc1` [Example 85, 3-(2-Phenylfuran-3-yl)-1-[3-(trifluoromethyl)phenyl]pyridazin-4(1H)-one], 159 to 163 °C.
For `O=c1ccn(-c2cccc(C(F)(F)F)c2)nc1-c1ccsc1-c1ccccc1` [Example 86, 3-(2-Phenylthiophen-3-yl)-1-[3-(trifluoromethyl)phenyl]pyridazin-4(1H)-one] the value was 167 to 168 °C; for `COc1cn(-c2ccncc2)nc(-c2ccnn2-c2ccccc2)c1=O` [Example 87, 5-Methoxy-3-(1-phenyl-1H-pyrazol-5-yl)-1-pyridin-4-ylpyridazin-4(1H)-one], 195 to 197 °C; for `COc1cn(-c2cccc3cccnc23)nc(-c2ccnn2-c2ccccc2)c1=O` [Example 88, 5-Methoxy-3-(1-phenyl-1H-pyrazol-5-yl)-1-quinolin-8-ylpyridazin-4(1H)-one], 189 to 192 °C.
The molecule `COc1cn(-c2cccc3c2OC(F)(F)O3)nc(-c2ccnn2-c2ccccc2)c1=O` [Example 90, 1-(2,2-Difluoro-1,3-benzodioxol-4-yl)-5-methoxy-3-(1-phenyl-1H-pyrazol-5-yl)pyridazin-4(1H)-one] came in with a melting point of 181 to 183 °C.
Under `COc1cn(-c2ccc(O)cc2F)nc(-c2ccnn2-c2ccccc2)c1=O` [Example 91, 1-(2-Fluoro-4-hydroxyphenyl)-5-methoxy-3-(1-phenyl-1H-pyrazol-5-yl)pyridazin-4(1H)-one] stands 223 to 224 °C; under `COc1cn(-c2cc3c(cc2F)OC(F)(F)O3)nc(-c2ccnn2-c2ccccc2)c1=O` [Example 95, 5-Methoxy-3-(1-phenyl-1H-pyrazol-5-yl)-1-(2,2,6-trifluoro-1,3-benzodioxol-5-yl)pyridazin-4(1H)-one], 200 to 202 °C; under `COc1cn(-c2cc3c(cc2F)OC(F)(F)C(F)(F)O3)nc(-c2ccnn2-c2ccccc2)c1=O` [Example 96, 5-Methoxy-1-(2,2,3,3,7-pentafluoro-2,3-dihydro-1,4-benzodioxin-6-yl)-3-(1-phenyl-1H-pyrazol-5-yl)pyridazin-4(1H)-one], 192 to 194 °C.
Consider `COc1cn(-c2ccc(-c3c(C)noc3C)cc2F)nc(-c2ccnn2-c2ccccc2)c1=O` [Example 112, 1-[4-(3,5-Dimethylisoxazol-4-yl)-2-fluorophenyl]-5-methoxy-3-(1-phenyl-1H-pyrazol-5-yl)pyridazin-4(1H)-one], for which the melting point lay in the range of 200 to 202 °C.
For `O=c1ccn(-c2cccc3c2OC(F)(F)O3)nc1-c1ccnn1-c1ccccc1` [Example 142, 1-(2,2-Difluoro-1,3-benzodioxol-4-yl)-3-(1-phenyl-1H-pyrazol-5-yl)pyridazin-4(1H)-one] the value was 105 to 107 °C.
`O=c1ccn(-c2cccc(C(F)(F)F)c2)nc1-c1ccnn1CC1CC1` [Example 152, 3-[1-(Cyclopropylmethyl)-1H-pyrazol-5-yl]-1-[3-(trifluoromethyl)phenyl]pyridazin-4(1H)-one] registered a melting point of 155 to 157 °C.
`O=c1ccn(-c2cccc(C(F)(F)F)c2)nc1-c1ccnn1Cc1ccccc1` [Example 153, 3-(1-Benzyl-1H-pyrazol-5-yl)-1-[3-(trifluoromethyl)phenyl]pyridazin-4(1H)-one] came in with a melting point of 156 to 157 °C.
